The term IC50 denotes the concentration that gives 50% inhibition.

One experiment concerns IPF patients. The conditions noted are these: 26-week clinical trial in IPF patients; cited from earlier work.
The next experiment addresses T1, human LPA1 (Homo sapiens, UniProt Q92633).
T1 construct: expressed in transfected cells; host or cells: Chinese hamster ovary (CHO) cells
Nature of the experiment: LPA1 functional antagonist assay (LPA-induced calcium flux in CHO cells overexpressing human LPA1). It counts as cell-based. The conditions noted are these: read-out: hLPA1 IC50. In short, it runs like this:
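Calcium flux was triggered by 10 nM LPA after 20 min room-temperature compound pre-incubation (final 0.08 nM to 5 μM, 0.5% DMSO) in human LPA1-overexpressing CHO cells carrying calcium dye. Buffer: HBSS with Ca/Mg, 20 mM HEPES, 0.1% fatty-acid-free BSA; IC50s from 4-parameter logistic fits.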

In another experiment the test system is CD-1 female mice. In words: LPA challenge with plasma histamine evaluation (acute in vivo histamine assay). More on the design: species or system mouse. The conditions noted are these: 1 mg/kg dose. The procedure: LPA Challenge with Plasma Histamine Evaluation.
Compound is dosed orally p.o. 2 hours to CD-1 female mice prior to the LPA challenge. The mice are then dosed via tail vein (IV) with 0.15 mL of LPA in 0.1% BSA/PBS (2 μg/μL). Exactly 2 minutes following the LPA challenge, the mice are euthanized by decapitation and the trunk blood is collected. These samples are collectively centrifuged and individual 75 μL samples are frozen at −20° C. until the time of the histamine assay.
The plasma histamine analysis was run by standard EIA (Enzyme Immunoassay) methods. Plasma samples were thawed and diluted 1:30 in 0.1% BSA in PBS. The EIA protocol for histamine analysis as outlined by the manufacturer was followed (Histamine EIA, Oxford Biomedical Research, EA #31).
The LPA used in the assay is formulated as follows: LPA (l-oleoyl-2-hydroxy-sn-glycero-3-phosphate (sodium salt), 857130P, Avanti Polar Lipids) is prepared in 0.1% BSA/PBS for total concentration of 2 μg/μL. 13 mg of LPA is weighed and 6.5 mL 0.1% BSA added, vortexed and sonicated for 1 hour until a clear solution is achieved.

Another experiment concerns nerve-injured mice. To be noted: pretreatment; cited from earlier work.
The subject of experiment [1] is human foetal lung fibroblasts. The conditions noted are these: cited from earlier work.
The subject of a further experiment is MCT. To be noted: MCT cells, co-treatment with LPA; cited from earlier work.
For experiment [2], the system named is pancreatic cancer cell lines. The conditions noted are these: cited from earlier work.
A further experiment has as its system UUO mice. To be noted: cited from earlier work.
The mark [3] stands for this setting: inhibition of calcium flux induced by 10 nM LPA, CHO cells overexpressing human LPA1.

Like-named read-outs stand apart in the source and are kept apart here.

T1 sequence (Q92633 whole entry): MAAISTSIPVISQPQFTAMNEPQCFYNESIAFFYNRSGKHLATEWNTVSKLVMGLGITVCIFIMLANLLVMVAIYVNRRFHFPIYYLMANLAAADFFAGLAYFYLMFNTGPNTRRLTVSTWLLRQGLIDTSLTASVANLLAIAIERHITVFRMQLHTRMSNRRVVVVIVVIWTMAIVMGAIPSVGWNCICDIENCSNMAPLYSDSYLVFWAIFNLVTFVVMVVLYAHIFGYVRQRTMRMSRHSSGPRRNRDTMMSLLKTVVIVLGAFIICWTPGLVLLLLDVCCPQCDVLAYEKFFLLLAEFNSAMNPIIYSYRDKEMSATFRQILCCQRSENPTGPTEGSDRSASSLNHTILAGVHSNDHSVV

For `Cc1noc(-c2ccc(-c3ccc(C4(C(=O)O)CC4)cc3)cc2)c1NC(=O)O[C@H](C)c1ccccc1` [BMS-986020], in the experiment on IPF patients, the “rate of FVC (forced vital capacity) decline” value is given as “significantly reduce”.

As for `Cc1nc(-c2nnn(C)c2CNc2noc(CC3CC3)n2)ccc1O[C@H]1CCC[C@H](C(=O)O)C1` [Example 70], the 50% inhibitory concentration (IC50) on human LPA1 (setting [3]) worked out at 15 nM. Besides, the “histamine, acute in vivo histamine assay in CD-1 mice” value with CD-1 female mice is recorded as −39%.

For `Cc1nc(-c2nnn(C)c2Cn2nnc(N(C)CC3CC3)n2)ccc1O[C@H]1CCC[C@H](C(=O)O)C1` [Example 408, (1S,3S)-3-({6-(5-({5-[(cyclopropylmethyl)(methyl)amino]-2H-1,2,3,4-tetrazol-2-yl}methyl)-1-methyl-1H-1,2,3-triazol-4-yl]-2-methylpyridin-3-yl}oxy)cyclohexane-1-carboxylic acid], at human LPA1, the half-maximal inhibitory concentration (IC50) stood at 339 nM.

Regarding `Cn1nnc(-c2ncc(O[C@H]3CCC[C@H](C(=O)O)C3)cc2F)c1CNc1noc(CCC2CC2)n1` [Example 409, (1S,3S)-3-((6-(5-(((5-(2-cyclopropylethyl)-1,2,4-oxadiazol-3-yl)amino)methyl)-1-methyl-1H-1,2,3-triazol-4-yl)-5-fluoropyridin-3-yl)oxy)cyclohexane-1-carboxylic acid], the IC50 at human LPA1 turned out to be 1920 nM.

For `Cc1nc(-c2nnn(C)c2CNc2noc(COCCCCF)n2)ccc1O[C@H]1CCC[C@H](C(=O)O)C1` [Example 410, (1S,3S)-3-((6-(5-(((5-((4-fluoro-butoxy)methyl)-1,2,4-oxadiazol-3-yl)amino)methyl)-1-methyl-1H-1,2,3-triazol-4-yl)-2-methylpyridin-3-yl)oxy)cyclohexane-1-carboxylic acid], the IC50 on human LPA1 worked out at 43 nM.

Consider `Cc1nc(-c2nnn(C)c2Nc2nc(-c3ccccc3)no2)ccc1O[C@H]1CCC[C@H](C(=O)O)C1` [Example 411, (1 S,3S)-3-((2-methyl-6-(1-methyl-5-((3-phenyl-1,2,4-oxadiazol-5-yl)amino)-1H-1,2,3-triazol-4-yl)pyridin-3-yl)oxy)cyclohexane-1-carboxylic acid], for which the IC50 at human LPA1 (setting [3]) stood at 1440 nM.

For `Cc1nc(-c2nnn(C)c2Cn2nnc(C3CC3)n2)ccc1O[C@H]1CCC[C@H](C(=O)O)C1` [Example 412, (1S,3S)-3-((6-(5-((5-cyclopropyl-2H-tetrazol-2-yl)methyl)-1-methyl-1H-1,2,3-triazol-4-yl)-2-methyl-pyridin-3-yl)oxy)cyclohexane-1-carboxylic acid], the IC50 on human LPA1 amounted to 384 nM.

For the molecule `C[C@@H](N)[C@H]1CC[C@H](C(=O)Nc2ccncc2)CC1` [Example Y-27632], the allodynia and hyperalgesia result with nerve-injured mice is “completely abolished”.

With `Cc1noc(-c2ccc(CSCCC(=O)O)cc2)c1NC(=O)OC(C)c1ccccc1Cl` (centres unmarked) [Ki16425], in experiment [1], the “chemotaxis of human foetal lung fibroblasts induced by BAL from IPF patients” value is “blocked”. Also, the “LPA-induced CTGF expression” value in the experiment on MCT is reported as “almost completely suppressed”. Further, in experiment [2] (highly peritoneal metastatic pancreatic cancer cell line), the “LPA-induced and ascites-induced invasion activity” value is on record as “blocked”. For the same molecule, the “in vitro migration in response to LPA and peritoneal fluid (ascites) from pancreatic cancer patients” value in experiment [2] (pancreatic cancer cell lines) is listed as “effectively blocked”. In addition, the “renal fibrosis profile in UUO mice” value in the experiment with UUO mice is given as “closely resembled the profile of LPA1 (−/−) mice”.

These data come from US11319315B2, “Cyclohexyl acid triazole azoles as LPA antagonists” (BRISTOL-MYERS SQUIBB COMPANY, priority 2017, dated 2022).
